{"source": "paper PMC11445910", "about": "(International Journal of Veterinary Science and Medicine, 2024)", "key": {"[1]": {"tested_on": "Influenza virus H1N1", "conditions": "cited from earlier work"}, "[2]": {"tested_on": "RSV", "conditions": "cited from earlier work"}, "[3]": {"tested_on": "Influenza virus type A", "conditions": "cited from earlier work"}, "[4]": {"tested_on": "FMDV serotype A (NP05)", "assay": "microbe, parasite or virus in culture", "format": "cell-based, Foot-and-mouth disease virus"}, "[5]": {"tested_on": "FMDV serotype A (NP05)", "assay": "microbe, parasite or virus in culture", "format": "cell-based, Foot-and-mouth disease virus", "remark": "listed apart in the source"}, "[6]": {"tested_on": "FMDV serotype A (NP05)", "assay": "microbe, parasite or virus in culture", "format": "cell-based", "conditions": "Foot-and-mouth disease virus, BHK-21, read-out: Prophylactic EC50"}, "[7]": {"tested_on": "FMDV serotype A (NP05)", "format": "cell-based, Foot-and-mouth disease virus"}, "[8]": {"tested_on": "SARS-CoV-2", "conditions": "read-out: EC50 against SARS-CoV-2; cited from earlier work"}, "[9]": {"tested_on": "FMDV serotype A (NP05)", "format": "cell-based, Foot-and-mouth disease virus", "remark": "listed apart in the source"}, "[10]": {"tested_on": "FMDV serotype A (NP05)", "assay": "microbe, parasite or virus in culture", "format": "cell-based", "conditions": "Foot-and-mouth disease virus, BHK-21, read-out: Post-viral entry EC50"}, "[11]": {"biological_target": "RdRp", "conditions": "read-out: Binding affinity (RdRp inhibition using surface plasmon resonance assay); cited from earlier work"}, "[12]": {"tested_on": "FMDV 3Dpol", "format": "cell-based, Foot-and-mouth disease virus"}, "[13]": {"tested_on": "FMDV serotype A (NP05)", "format": "cell-based, Foot-and-mouth disease virus", "remark": "listed apart in the source"}, "[14]": {"tested_on": "papain-like protease 2 protein", "conditions": "read-out: IC50 (papain-like protease 2 protein inhibition); cited from earlier work"}, "[15]": {"tested_on": "HBV", "conditions": "read-out: IC50 against HBV; cited from earlier work"}, "[16]": {"tested_on": "HCoV-OC43", "conditions": "read-out: EC50 against HCoV-OC43; cited from earlier work"}, "[17]": {"tested_on": "MHV-A59", "conditions": "read-out: EC50 against MHV-A59; cited from earlier work"}, "[18]": {"tested_on": "MERS-CoV", "conditions": "read-out: EC50 against MERS-CoV; cited from earlier work"}, "[19]": {"tested_on": "HCoV-NL63", "conditions": "read-out: EC50 against HCoV-NL63; cited from earlier work"}, "[20]": {"tested_on": "CHIKV", "conditions": "read-out: EC50 against CHIKV; cited from earlier work"}, "[21]": {"tested_on": "FMDV serotype A", "conditions": "cited from earlier work"}, "[22]": {"tested_on": "enterovirus (EV) A71", "conditions": "read-out: EC50 against enterovirus (EV) A71; cited from earlier work"}, "[23]": {"tested_on": "HIV reverse transcriptase", "conditions": "cited from earlier work"}, "[24]": {"tested_on": "EBOV", "conditions": "read-out: IC50 (viral-like particle entry); cited from earlier work"}, "[25]": {"biological_target": "ZIKV NS5 RNA polymerase", "conditions": "read-out: IC50 (NS5 polymerase inhibition); cited from earlier work"}, "[26]": {"conditions": "Foot-and-mouth disease virus, BHK-21, read-out: Penetration EC50"}, "[27]": {"conditions": "Foot-and-mouth disease virus, BHK-21, read-out: Pre-viral entry EC50"}}, "note": "Read-outs that look alike come from different tables or passages of the source.", "data": [{"compound": "C/C=C1/CN2[C@@H]3C[C@@]45c6ccccc6N[C@]4(O3)[C@@H]2C[C@@H]1[C@H]5C(=O)OC", "note": "[Picrinine (PCN), Picrinine]", "values": [{"measurement": "Reduction of haemagglutination titres", "setting": "[1]", "value": "Reduction of haemagglutination titres at 1/480; 12.5 mg/kg of Alstonia scholaris (L.) crude extract"}]}, {"compound": "Strictosamide [Strictosamide (STM)]", "values": [{"measurement": "IC50 against RSV", "setting": "[2]", "value": "IC50 of 25.68 µg/ml in MDCK cells IC50 of 12.50 µg/ml in Hep-2 cells"}, {"measurement": "IC50 against influenza virus type A", "setting": "[3]", "value": "IC50 of 25.68 µg/ml in MDCK cells IC50 of 12.50 µg/ml in Hep-2 cells"}]}, {"compound": "CC[C@H]1CN2CCc3cc(OC)c(OC)cc3[C@@H]2C[C@@H]1C[C@H]1NCCc2cc(O)c(OC)cc21", "note": "[CPL, Cephaeline]", "values": [{"measurement": "EC50", "setting": "[4]; [26]", "value": 50, "unit": "nM"}, {"measurement": "EC50", "setting": "[5]; [27]", "value": "100 ± 100", "unit": "nM"}, {"measurement": "EC50", "setting": "[6]", "value": "230 ± 650", "unit": "nM"}, {"measurement": "% Virucidal effect (Virus titre reduction of log TCID50/ml), High dose", "setting": "[7]", "value": 79.59, "unit": "%"}, {"measurement": "% Virucidal effect (Virus titre reduction of log TCID50/ml), Low dose", "setting": "[7]", "value": 68.35, "unit": "%"}, {"measurement": "log viral titre after treatment, high dose", "setting": "[7]", "value": 1.00}, {"measurement": "log viral titre after treatment, low dose", "setting": "[7]", "value": 1.00}, {"measurement": "EC50", "setting": "[8]", "value": 12.3, "unit": "nM"}, {"measurement": "Effect on viral attachment (binding of FMDV)", "setting": "[9]", "value": "neither CPL nor EMT impeded the binding of FMDV"}, {"measurement": "EC50", "setting": "[10]", "value": "50 ± 130", "unit": "nM"}, {"measurement": "Kd", "setting": "[11]", "value": 8.9, "unit": "µM"}, {"measurement": "Negative-stranded RNA production", "setting": "[12]", "value": "affected the production of negative-stranded RNA"}, {"measurement": "Viral load reduction (viral copy numbers)", "setting": "[13]", "value": "dose-dependent manner"}]}, {"compound": "O=C1c2ccccc2-n2c1nc1ccccc1c2=O", "note": "[Tryptanthrin (TTT), Tryptanthrin]", "values": [{"measurement": "IC50", "setting": "[14]", "value": 60, "unit": "nM"}]}, {"compound": "C[C@@H]1CC[C@@]2(NC1)O[C@H]1C[C@H]3[C@@H]4CC=C5C[C@@H](O[C@@H]6O[C@H](CO)[C@@H](O[C@@H]7O[C@@H](C)[C@H](O)[C@@H](O)[C@H]7O)[C@H](O)[C@H]6O[C@@H]6O[C@@H](C)[C@H](O)[C@@H](O)[C@H]6O)CC[C@]5(C)[C@H]4CC[C@]3(C)[C@H]1[C@@H]2C", "note": "[Solamargine (SLG), Solamargine]", "values": [{"measurement": "IC50", "setting": "[15]", "value": 2170, "unit": "nM"}]}, {"compound": "C[C@H]1[C@H]2CC[C@H]3[C@@H]4CC=C5C[C@@H](N(C)C)CC[C@]5(C)[C@H]4CC[C@]23CN1C", "note": "[Conessine (CNS), Conessine]", "values": [{"measurement": "EC50", "setting": "[16]", "value": 2340, "unit": "nM"}, {"measurement": "EC50", "setting": "[17]", "value": 11.5, "unit": "µM"}, {"measurement": "EC50", "setting": "[18]", "value": 4980, "unit": "nM"}, {"measurement": "EC50", "setting": "[19]", "value": 10.7, "unit": "µM"}]}, {"compound": "C[C@H]1CC[C@]2(NC1)O[C@H]1C[C@H]3[C@@H]4CC[C@H]5C[C@@H](O)CC[C@]5(C)[C@H]4CC[C@]3(C)[C@H]1[C@@H]2C", "note": "[Tomatidine (TMD), Tomatidine]", "values": [{"measurement": "EC50", "setting": "[20]", "value": 1300, "unit": "nM"}]}, {"compound": "NC(=O)c1ncc[nH]c1=O", "note": "[T-1105]", "values": [{"measurement": "IC50 against FMDV serotype A", "setting": "[21]", "value": 1.11, "unit": "µg/mL"}, {"measurement": "IC50", "setting": "[21]; read-out: IC50 against FMDV serotype A", "value": 7.97, "unit": "µM"}]}, {"compound": "CCOC(=O)/C=C/[C@H](C[C@@H]1CCNC1=O)NC(=O)[C@@H](CC(=O)[C@@H](NC(=O)c1cc(C)on1)C(C)C)Cc1ccc(F)cc1", "note": "[RPV, Rupintrivir]", "values": [{"measurement": "EC50", "setting": "[4]; read-out: Penetration EC50", "value": "2060 ± 310", "unit": "nM"}, {"measurement": "EC50", "setting": "[5]; read-out: Pre-viral entry EC50", "value": "10400 ± 1020", "unit": "nM"}, {"measurement": "EC50", "setting": "[10]", "value": "3430 ± 540", "unit": "nM"}]}, {"compound": "CC[C@H]1CN2CCc3cc(OC)c(OC)cc3[C@@H]2C[C@@H]1C[C@H]1NCCc2cc(OC)c(OC)cc21", "note": "[EMT, Emetine, reference compound]", "values": [{"measurement": "EC50", "setting": "[22]", "value": 40, "unit": "nM"}, {"measurement": "EC50", "setting": "[16]", "value": 300, "unit": "nM"}, {"measurement": "EC50", "setting": "[4]; [26]", "value": 120, "unit": "nM"}, {"measurement": "EC50", "setting": "[5]; [27]", "value": 130, "unit": "nM"}, {"measurement": "EC50", "setting": "[6]", "value": "640 ± 200", "unit": "nM"}, {"measurement": "% Virucidal effect (Virus titre reduction of log TCID50/ml), Low dose", "setting": "[7]", "value": 32.28, "unit": "%"}, {"measurement": "log viral titre after treatment, high dose", "setting": "[7]", "value": 2.16}, {"measurement": "log viral titre after treatment, low dose", "setting": "[7]", "value": 2.14}, {"measurement": "EC50", "setting": "[17]", "value": 0.12, "unit": "µM"}, {"measurement": "Reduction of HIV reverse transcriptase activity", "setting": "[23]", "value": "approximately 50%"}, {"measurement": "EC50", "setting": "[8]", "value": 7.71, "unit": "nM"}, {"measurement": "EC50", "setting": "[18]", "value": 340, "unit": "nM"}, {"measurement": "IC50", "setting": "[24]", "value": 10.2, "unit": "µM"}, {"measurement": "Effect on viral attachment (binding of FMDV)", "setting": "[9]", "value": "neither CPL nor EMT impeded the binding of FMDV"}, {"measurement": "EC50", "setting": "[10]", "value": "240 ± 630", "unit": "nM"}, {"measurement": "IC50", "setting": "[25]", "value": 121, "unit": "nM"}, {"measurement": "EC50", "setting": "[19]", "value": 1.43, "unit": "µM"}, {"measurement": "Negative-stranded RNA production", "setting": "[12]", "value": "affected the production of negative-stranded RNA"}, {"measurement": "Viral load reduction (viral copy numbers)", "setting": "[13]", "value": "dose-dependent manner"}]}]}
